According to patent publication US20100119595A1, “Monounsaturated fatty acids and perhydrocyclopentanophenanthrene nucleus combination molecules, and their precursors, and the use of all of these as weight-loss agents” (priority 2001, published 2010):

How the values were obtained:
[1] = Rat study of 2 hydroxyestrone oleate (Example 12); assay type: in vivo, Osborne Mendle rats; conditions: rats, oral gavage 21 days, 10, 5, 3.33 or 2.5 micromoles/kg
Protocol: Osborne Mendle rats are selected as the study subjects due to their propensity to gain fat when fed a high fat diet. An initial measurement of body weight is performed on each rat. The rats are placed individually in appropriate cages and allowed an ad libitum diet of standard rat chow and water for a 10-day period. During this 10-day period the rats are gavaged daily with 0.1 cc volume of sunflower oil to allow them to become comfortable with being handled and receiving the gavage tube (it takes about 10 days for this acclimation to occur, and is important so that the animals are not stressed by the gavage). Daily measurements include the following: • 1. Weight • 2. Weight of food consumed • 3. Spillage • 4. Water consumed, both volume and weight The rats remain confined and are denied out-of-cage activity or exercise for the duration of the experiment other than normal daily activity confined to the cage. This initial 10 day period establishes a pattern and average of weight gain, to acclimate the animals to the gavage procedure, and determine the average food and water consumption for each rat. […]
At the end of the study, rats are anesthetized then sacrificed via guillotine. […] Weight of the uterus is determined. […]

[2] = Human study of estrone eicosenoate as anti-obesity drug (Example 3); assay type: in vivo; conditions: humans, oral capsule every morning, 0.75 or 0.375 micromoles/kg
Protocol: • 1) The required number of subjects are properly screened to fulfill the necessary qualifications, • 2) appropriate laboratory evaluation are performed, • 3) various aspects of positive drug response in a manner acceptable for drug approval are recorded, • 4) adverse drug effects are documented, and • 5) patients are adequately followed-up.
In this random, double-blind, placebo controlled study, subjects are selected to one of three groups and take a capsule orally every morning containing one of the following: a) sunflower oil (placebo), b) estrone eicosenoate dissolved in sunflower oil at a dose of 0.75 micromoles/kg, or c) estrone eicosenoate dissolved in sunflower oil at a dose of to 0.375 micromoles/kg.
Subjects report weekly for measurements and assessment of any side effects. […]
Different tests are performed at least five different times during each study, namely at the screening of potential participants, at the beginning of the study, weekly during the trials, at the end of the first 4 week period and at the end of the second 4 week treatment period. • 1) SCREENING: Subjects are screened to exclude hypothyroidism, pregnancy, and heart disease. […] Subjects selected to participate in the studies have the following initial measurements: WEIGHT, WAIST to HIP RATIO, HEIGHT, BMI (calculated), BODY FAT % & TOTAL BODY FAT (via bioelectrical impedance method). […]

Compound | body weight &/or body fat [1] | food consumption [1] | appetite [2] | weight loss, loss of body fat, and/or decrease of body fat% [2]
CCCCCCCC/C=C\CCCCCCCC(=O)Oc1cc2c(cc1O)[C@H]1CC[C@]3(C)C(=O)CC[C@H]3[C@@H]1CC2 [2HOE, 2 hydroxyestrone oleate] | reduction of body weight &/or body fat | reduction in food consumption |  | 
CCCCCCCC/C=C\CCCCCCCCCC(=O)Oc1ccc2c(c1)CC[C@@H]1[C@@H]2CC[C@]2(C)C(=O)CC[C@@H]12 [EE, estrone eicosenoate] |  |  | reduces appetite | produces weight loss
